Reference: PubChem BioAssay (NCI)
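Each compound was tested at five concentrations against cells in 96-well plates for 48 hours. GI50 marks 50% less growth. At the TGI there is no net growth.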

Tests used:
Test in all cases: growth of human tumour cells (NCI), 48 h
[1] = system: 786-0 renal
[2] = system: A498 renal
[3] = system: A549 NSCLC
[4] = system: ACHN renal
[5] = system: BT-549 breast
[6] = system: CAKI-1 renal
[7] = system: CCRF-CEM leukemia
[8] = system: COLO 205 colon
[9] = system: DU-145 prostate
[10] = system: EKVX NSCLC
[11] = system: HCC-2998 colon
[12] = system: HCT-116 colon
[13] = system: HCT-15 colon
[14] = system: HL-60(TB) leukemia
[15] = system: HOP-62 NSCLC
[16] = system: HOP-92 NSCLC
[17] = system: HS 578T breast
[18] = system: HT29 colon
[19] = system: IGROV1 ovarian
[20] = system: K-562 leukemia
[21] = system: KM12 colon
[22] = system: LOX IMVI melanoma
[23] = system: M14 melanoma
[24] = system: MALME-3M melanoma
[25] = system: MCF7 breast
[26] = system: MDA-MB-231 breast
[27] = system: MDA-MB-435
[28] = system: MOLT-4 leukemia
[29] = system: NCI-H226 lung
[30] = system: NCI-H23 lung
[31] = system: NCI-H460 lung
[32] = system: NCI-H522 lung
[33] = system: NCI/ADR-RES ovarian
[34] = system: OVCAR-3 ovarian
[35] = system: OVCAR-4 ovarian
[36] = system: OVCAR-5 ovarian
[37] = system: OVCAR-8 ovarian
[38] = system: PC-3 prostate
[39] = system: RPMI-8226 leukemia
[40] = system: RXF 393 renal
[41] = system: SF-268 CNS
[42] = system: SF-295 CNS
[43] = system: SF-539 CNS
[44] = system: SK-MEL-2 melanoma
[45] = system: SK-MEL-28 melanoma
[46] = system: SK-MEL-5 melanoma
[47] = system: SK-OV-3 ovarian
[48] = system: SN12C renal
[49] = system: SNB-19 CNS
[50] = system: SNB-75 CNS
[51] = system: SR leukemia
[52] = system: SW-620 colon
[53] = system: T-47D breast
[54] = system: TK-10 renal
[55] = system: U251 CNS
[56] = system: UACC-257 melanoma
[57] = system: UACC-62 melanoma
[58] = system: UO-31 renal

Question: Which GI50 [1] does the source give for `c1ccc(-c2c(-c3ccccc3)[n+](Cc3ccc4ccccc4c3)c(-c3cccc4ccccc34)n2Cc2ccc3ccccc3c2)cc1` here?
Answer: Its GI50 is 231 nM.

Question: What about the TGI [1] of the same compound?
Answer: The TGI was 1630 nM.

Question: What about the GI50 [2] of the same compound?
Answer: The GI50 was under 47.1 nM.

Question: What about the TGI [2] of the same compound?
Answer: Its TGI is 398 nM.

Question: What about the GI50 [3] of the same compound?
Answer: Its GI50 is 166 nM.

Question: What about the TGI [3] of the same compound?
Answer: Its TGI is 1570 nM.

Question: And the GI50 [4]?
Answer: The GI50 was 249 nM.

Question: What about the TGI [4] of the same compound?
Answer: Its TGI is 743 nM.

Question: What about the GI50 [5] of the same compound?
Answer: The GI50 was 122 nM.

Question: And the TGI [5]?
Answer: Its TGI is 1180 nM.

Question: What about the GI50 [6] of the same compound?
Answer: The GI50 was 265 nM.

Question: And the TGI [6]?
Answer: Its TGI is 1010 nM.

Question: What about the GI50 [7] of the same compound?
Answer: Its GI50 is 128 nM.

Question: What about the TGI [7] of the same compound?
Answer: The TGI was 1660 nM.

Question: What about the GI50 [8] of the same compound?
Answer: Its GI50 is 76.5 nM.

Question: What about the TGI [8] of the same compound?
Answer: The TGI was 228 nM.

Question: And the GI50 [9]?
Answer: Its GI50 is 262 nM.

Question: What about the TGI [9] of the same compound?
Answer: Its TGI is 1440 nM.

Question: What about the GI50 [10] of the same compound?
Answer: The GI50 was 187 nM.

Question: And the TGI [10]?
Answer: Its TGI is 1430 nM.

Question: And the GI50 [11]?
Answer: The GI50 was 131 nM.

Question: And the TGI [11]?
Answer: The TGI was 1500 nM.

Question: What about the GI50 [12] of the same compound?
Answer: Its GI50 is 92.7 nM.

Question: And the TGI [12]?
Answer: Its TGI is 1250 nM.

Question: And the GI50 [13]?
Answer: The GI50 was 327 nM.

Question: What about the TGI [13] of the same compound?
Answer: The TGI was 1210 nM.

Question: What about the GI50 [14] of the same compound?
Answer: The GI50 was 34.2 nM.

Question: What about the TGI [14] of the same compound?
Answer: Its TGI is 228 nM.

Question: What about the GI50 [15] of the same compound?
Answer: Its GI50 is 301 nM.

Question: And the TGI [15]?
Answer: The TGI was 1780 nM.

Question: What about the GI50 [16] of the same compound?
Answer: The GI50 was 79.1 nM.

Question: What about the TGI [16] of the same compound?
Answer: The TGI was 479 nM.

Question: And the GI50 [17]?
Answer: The GI50 was 302 nM.

Question: What about the TGI [17] of the same compound?
Answer: Its TGI is 2200 nM.

Question: And the GI50 [18]?
Answer: Its GI50 is 46.6 nM.

Question: What about the TGI [18] of the same compound?
Answer: Its TGI is 1100 nM.

Question: What about the GI50 [19] of the same compound?
Answer: Its GI50 is 147 nM.

Question: And the TGI [19]?
Answer: The TGI was 1390 nM.

Question: And the GI50 [20]?
Answer: Its GI50 is 45.1 nM.

Question: And the TGI [20]?
Answer: The TGI was over 100 µM.

Question: And the GI50 [21]?
Answer: The GI50 was 98.7 nM.

Question: And the TGI [21]?
Answer: Its TGI is 758 nM.

Question: What about the GI50 [22] of the same compound?
Answer: The GI50 was 150 nM.

Question: What about the TGI [22] of the same compound?
Answer: Its TGI is 496 nM.

Question: What about the GI50 [23] of the same compound?
Answer: Its GI50 is 187 nM.

Question: What about the TGI [23] of the same compound?
Answer: Its TGI is 1440 nM.

Question: What about the GI50 [24] of the same compound?
Answer: The GI50 was 91 nM.

Question: And the TGI [24]?
Answer: Its TGI is 1000 nM.

Question: And the GI50 [25]?
Answer: Its GI50 is 169 nM.

Question: And the TGI [25]?
Answer: Its TGI is 1070 nM.

Question: And the GI50 [26]?
Answer: The GI50 was 220 nM.

Question: And the TGI [26]?
Answer: The TGI was 1000 nM.

Question: What about the GI50 [27] of the same compound?
Answer: Its GI50 is 284 nM.

Question: What about the TGI [27] of the same compound?
Answer: Its TGI is 1180 nM.

Question: What about the GI50 [28] of the same compound?
Answer: The GI50 was 233 nM.

Question: What about the TGI [28] of the same compound?
Answer: Its TGI is 1270 nM.

Question: What about the GI50 [29] of the same compound?
Answer: The GI50 was 203 nM.

Question: And the TGI [29]?
Answer: The TGI was 828 nM.

Question: And the GI50 [30]?
Answer: Its GI50 is 146 nM.

Question: What about the TGI [30] of the same compound?
Answer: The TGI was 748 nM.

Question: What about the GI50 [31] of the same compound?
Answer: Its GI50 is 154 nM.

Question: What about the TGI [31] of the same compound?
Answer: The TGI was 1140 nM.

Question: And the GI50 [32]?
Answer: The GI50 was 253 nM.

Question: What about the TGI [32] of the same compound?
Answer: Its TGI is 978 nM.

Question: And the GI50 [33]?
Answer: The GI50 was 1300 nM.

Question: And the TGI [33]?
Answer: The TGI was 2940 nM.

Question: What about the GI50 [34] of the same compound?
Answer: Its GI50 is 94.5 nM.

Question: What about the TGI [34] of the same compound?
Answer: The TGI was 1280 nM.

Question: And the GI50 [35]?
Answer: Its GI50 is 187 nM.

Question: What about the TGI [35] of the same compound?
Answer: The TGI was 1120 nM.

Question: And the GI50 [36]?
Answer: Its GI50 is 321 nM.

Question: What about the TGI [36] of the same compound?
Answer: Its TGI is 1350 nM.

Question: What about the GI50 [37] of the same compound?
Answer: The GI50 was 153 nM.

Question: What about the TGI [37] of the same compound?
Answer: Its TGI is 1540 nM.

Question: And the GI50 [38]?
Answer: The GI50 was 64.1 nM.

Question: What about the TGI [38] of the same compound?
Answer: Its TGI is 1210 nM.

Question: What about the GI50 [39] of the same compound?
Answer: Its GI50 is 32.6 nM.

Question: What about the TGI [39] of the same compound?
Answer: The TGI was 295 nM.

Question: What about the GI50 [40] of the same compound?
Answer: The GI50 was 220 nM.

Question: What about the TGI [40] of the same compound?
Answer: The TGI was 949 nM.

Question: And the GI50 [41]?
Answer: Its GI50 is 220 nM.

Question: And the TGI [41]?
Answer: Its TGI is 1760 nM.

Question: What about the GI50 [42] of the same compound?
Answer: The GI50 was 90.6 nM.

Question: And the TGI [42]?
Answer: Its TGI is 458 nM.

Question: And the GI50 [43]?
Answer: The GI50 was 371 nM.

Question: What about the TGI [43] of the same compound?
Answer: The TGI was 1500 nM.

Question: What about the GI50 [44] of the same compound?
Answer: The GI50 was 140 nM.

Question: And the TGI [44]?
Answer: Its TGI is 758 nM.

Question: What about the GI50 [45] of the same compound?
Answer: Its GI50 is 191 nM.

Question: What about the TGI [45] of the same compound?
Answer: The TGI was 1880 nM.

Question: What about the GI50 [46] of the same compound?
Answer: The GI50 was 155 nM.

Question: What about the TGI [46] of the same compound?
Answer: The TGI was 296 nM.

Question: And the GI50 [47]?
Answer: Its GI50 is 207 nM.

Question: And the TGI [47]?
Answer: Its TGI is 973 nM.

Question: And the GI50 [48]?
Answer: Its GI50 is 127 nM.

Question: And the TGI [48]?
Answer: Its TGI is 1140 nM.

Question: What about the GI50 [49] of the same compound?
Answer: The GI50 was 108 nM.

Question: And the TGI [49]?
Answer: The TGI was 1420 nM.

Question: What about the GI50 [50] of the same compound?
Answer: The GI50 was 192 nM.

Question: What about the TGI [50] of the same compound?
Answer: The TGI was 955 nM.

Question: And the GI50 [51]?
Answer: Its GI50 is 192 nM.

Question: And the TGI [51]?
Answer: Its TGI is 1530 nM.

Question: And the GI50 [52]?
Answer: The GI50 was 151 nM.

Question: What about the TGI [52] of the same compound?
Answer: Its TGI is 1330 nM.

Question: And the GI50 [53]?
Answer: The GI50 was 64.8 nM.

Question: And the TGI [53]?
Answer: Its TGI is 1270 nM.

Question: What about the GI50 [54] of the same compound?
Answer: The GI50 was 239 nM.

Question: And the TGI [54]?
Answer: The TGI was 1530 nM.

Question: And the GI50 [55]?
Answer: Its GI50 is 74.7 nM.

Question: What about the TGI [55] of the same compound?
Answer: Its TGI is 1460 nM.

Question: What about the GI50 [56] of the same compound?
Answer: Its GI50 is 221 nM.

Question: And the TGI [56]?
Answer: The TGI was 958 nM.

Question: What about the GI50 [57] of the same compound?
Answer: Its GI50 is 286 nM.

Question: What about the TGI [57] of the same compound?
Answer: The TGI was 1400 nM.

Question: What about the GI50 [58] of the same compound?
Answer: The GI50 was 306 nM.

Question: And the TGI [58]?
Answer: Its TGI is 1280 nM.
